Experimental data as given in patent US20260285850A1, “SUBSTITUTED OXAZOLIDINONES AND IMIDAZOLINONES AS HERBICIDES” (FMC CORPORATION, priority 2023, published 2026).

Experiments:
Type in all cases: in vivo
[1] = system: oat, wild (wild oat, Avena fatua); assay: Test A preemergence soil spray, visual injury rating 0-100; conditions: 10 days
Outline: (§1)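 Rating: visual, day 10, untreated plants as reference, 0 no effect to 100 full control. Plants were in loam-sand and were treated either preemergence via directed soil spray or postemergence at the one- to two-leaf stage.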

[2] = system: blackgrass (Alopecurus myosuroides); assay: as above; conditions: 10 days
Outline: as §1

[3] = system: wheat (Triticum aestivum); assay: as above; conditions: 10 days
Outline: as §1

[4] = system: corn (Zea mays); assay: as above; conditions: 10 days
Outline: as §1

[5] = system: kochia (Bassia scoparia); assay: as above; conditions: 10 days
Outline: as §1

[6] = system: soybean (Glycine max); assay: as above; conditions: 10 days
Outline: as §1

[7] = system: barnyardgrass (Echinochloa crus-galli); assay: as above; conditions: 10 days
Outline: as §1

[8] = system: palmer (palmer amaranth, palmer pigweed, Amaranthus palmeri); assay: as above; conditions: 10 days
Outline: as §1

[9] = system: ryegrass, Italian (italian ryegrass, Lolium multiflorum); assay: as above; conditions: 10 days
Outline: as §1

[10] = system: green foxtail (Setaria viridis); assay: as above; conditions: 10 days
Outline: as §1

[11] = system: ragweed (common ragweed, Ambrosia artemisiifolia); assay: as above; conditions: 10 days
Outline: as §1

[12] = system: sedge, umbrella (small-flower umbrella sedge, Cyperus difformis); assay: Test B flooded paddy test, visual plant response rating 0-100; conditions: 250 g ai/ha, Flood, applied to paddy water, evaluated after 13 days
Outline: (§2)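 Plants were grown to the 2-leaf stage, then pots were flooded to 3 cm above the soil and test compounds were applied directly into the paddy water. Water depth was held there throughout; after 13 days in a greenhouse, injury was scored visually against untreated controls.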

[13] = system: ducksalad (Heteranthera limosa); assay: as above; conditions: 250 g ai/ha, Flood, applied to paddy water, evaluated after 13 days
Outline: as §2

[14] = system: barnyardgrass (Echinochloa crusgalli); assay: as above; conditions: 250 g ai/ha, Flood, applied to paddy water, evaluated after 13 days
Outline: as §2

[15] = system: rice (Oryza sativa); assay: as above; conditions: 250 g ai/ha, Flood, applied to paddy water, evaluated after 13 days
Outline: as §2

[16] = system: oat, wild (wild oat, Avena fatua); assay: Test A postemergence application, visual injury rating 0-100
Outline: as §1

[17] = system: blackgrass (Alopecurus myosuroides); assay: as above
Outline: as §1

[18] = system: wheat (Triticum aestivum); assay: as above
Outline: as §1

[19] = system: corn (Zea mays); assay: as above
Outline: as §1

[20] = system: kochia (Bassia scoparia); assay: as above
Outline: as §1

[21] = system: soybean (Glycine max); assay: as above
Outline: as §1

[22] = system: horseweed (Erigeron canadensis); assay: as above
Outline: as §1

[23] = system: barnyardgrass (Echinochloa crus-galli); assay: as above
Outline: as §1

[24] = system: palmer (palmer amaranth, palmer pigweed, Amaranthus palmeri); assay: as above
Outline: as §1

[25] = system: galium (catchweed bedstraw, Galium aparine); assay: as above; conditions: Postemergence, 16 g ai/ha, greenhouse 10 days; 0 no effect, 100 complete control
Outline: as §1

[26] = system: ryegrass, Italian (italian ryegrass, Lolium multiflorum); assay: as above
Outline: as §1

[27] = system: green foxtail (Setaria viridis); assay: as above
Outline: as §1

[28] = system: ragweed (common ragweed, Ambrosia artemisiifolia); assay: as above
Outline: as §1

[29] = 62 g ai/ha, 0 = no effect, 100 = complete control
[30] = 62 g ai/ha, postemergence, 10 days, 0 = no effect, 100 = complete control
[31] = Postemergence, 16 g ai/ha, greenhouse 10 days, 0 no effect, 100 complete control

CC1(C(=O)NC2CC=C(C(=O)OCC(F)F)C2)CN(c2cc(Cl)cc(Cl)c2)C(=O)O1 (stereo not drawn) [Compound 154]
Oat, Wild plant response rating ([1]; 16 g ai/ha, 0 to 100 scale): 0 | Oat, Wild plant response rating (0-100) [1, 29]: 20 | Blackgrass plant response rating ([2]; 16 g ai/ha, 0 to 100 scale): 0 | Blackgrass plant response rating (0-100) [2, 29]: 0 | Wheat plant response rating ([3]; 16 g ai/ha, 0 to 100 scale): 10 | Wheat plant response rating (0-100) [3, 29]: 60 | Corn plant response rating ([4]; 16 g ai/ha, 0 to 100 scale): 20 | Corn plant response rating (0-100) [4, 29]: 30 | Kochia plant response rating ([5]; 16 g ai/ha, 0 to 100 scale): 20 | Kochia plant response rating (0-100) [5, 29]: 90 | Soybean plant response rating ([6]; 16 g ai/ha, 0 to 100 scale): 0 | Soybean plant response rating (0-100) [6, 29]: 50 | Barnyardgrass plant response rating ([7]; 16 g ai/ha, 0 to 100 scale): 30 | Barnyardgrass plant response rating (0-100) [7, 29]: 90 | Pigweed, Palmer plant response rating ([8]; 16 g ai/ha, 0 to 100 scale): 60 | Pigweed, Palmer plant response rating (0-100) [8, 29]: 100 | Ryegrass, Italian plant response rating ([9]; 16 g ai/ha, 0 to 100 scale): 30 | Ryegrass, Italian plant response rating (0-100) [9, 29]: 80 | Foxtail, Green plant response rating ([10]; 16 g ai/ha, 0 to 100 scale): 40 | Foxtail, Green plant response rating (0-100) [10, 29]: 90 | Ragweed plant response rating ([11]; 16 g ai/ha, 0 to 100 scale): 0 | Ragweed plant response rating (0-100) [11, 29]: 50 | Plant response rating, Sedge, Umbrella (0 to 100 scale, 0 is no effect and 100 is complete control) [12]: 95 | Plant response rating, Ducksalad (0 to 100 scale, 0 is no effect and 100 is complete control) [13]: 70 | Plant response rating, Barnyardgrass (0 to 100 scale, 0 is no effect and 100 is complete control) [14]: 98 | Plant response rating, Rice (0 to 100 scale, 0 is no effect and 100 is complete control) [15]: 95 | Oat, Wild plant response rating (0-100) [16, 30]: 90 | Oat, Wild plant response rating (0 to 100 scale) [16, 31]: 20 | Blackgrass plant response rating (0-100) [17, 30]: 0 | Blackgrass plant response rating (0 to 100 scale) [17, 31]: 0 | Wheat plant response rating (0-100) [18, 30]: 90 | Wheat plant response rating (0 to 100 scale) [18, 31]: 70 | Corn plant response rating (0-100) [19, 30]: 100 | Corn plant response rating (0 to 100 scale) [19, 31]: 100 | Kochia plant response rating (0-100) [20, 30]: 90 | Kochia plant response rating (0 to 100 scale) [20, 31]: 90 | Soybean plant response rating (0-100) [21, 30]: 60 | Soybean plant response rating (0 to 100 scale) [21, 31]: 60 | Horseweed plant response rating (0-100) [22, 30]: 70 | Horseweed plant response rating (0 to 100 scale) [22, 31]: 70 | Barnyardgrass plant response rating (0-100) [23, 30]: 100 | Barnyardgrass plant response rating (0 to 100 scale) [23, 31]: 100 | Pigweed, Palmer plant response rating (0-100) [24, 30]: 90 | Pigweed, Palmer plant response rating (0 to 100 scale) [24, 31]: 90 | Galium plant response rating (0 to 100 scale) [25]: 50 | Ryegrass, Italian plant response rating (0-100) [26, 30]: 80 | Ryegrass, Italian plant response rating (0 to 100 scale) [26, 31]: 60 | Foxtail, Green plant response rating (0-100) [27, 30]: 90 | Foxtail, Green plant response rating (0 to 100 scale) [27, 31]: 80 | Ragweed plant response rating (0-100) [28, 30]: 90 | Ragweed plant response rating (0 to 100 scale) [28, 31]: 40
